Drawing on PubChem BioAssay (NCI), this text covers TGI for 15 compounds.

Among the test systems are ACHN renal; CAKI-1 renal; HCC-2998 colon; HT29 colon; IGROV1 ovarian; MDA-MB-435; RXF 393 renal; SF-539 CNS; CCRF-CEM leukemia; UACC-257 melanoma.
Common to all, as to assay: inhibition of tumour cell growth, NCI panel, 48 h

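In this assay, cells in 96-well plates receive the compound at five concentrations for 48 hours. Endpoints are linearly interpolated between the surrounding concentrations. TGI: total growth inhibition.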

On to `CCC(O)c1ccc(N=Cc2ccccc2O)cc1` (stereo not drawn), for which the TGI in the experiment with ACHN renal, in the experiment on CAKI-1 renal, in the experiment with HCC-2998 colon, with HT29 colon, with IGROV1 ovarian and in the experiment on MDA-MB-435 was more than 100 µM in each case. Further, the TGI with RXF 393 renal and in the experiment with SF-539 CNS was more than 100 µM each time.

Take `Cc1ccc(NC(=O)/C(=N/N(C)C)C(C2OC(=O)c3ccccc32)[N+](=O)[O-])cc1` (stereo not drawn): the TGI in the experiment on ACHN renal, in the experiment with CAKI-1 renal, in the experiment with CCRF-CEM leukemia, in the experiment with HCC-2998 colon, in the experiment with HT29 colon and in the experiment with MDA-MB-435 was more than 100 µM throughout. In addition, the TGI with RXF 393 renal, in the experiment on SF-539 CNS and in the experiment on UACC-257 melanoma was more than 100 µM throughout.

On to `CC[P+]1(c2ccccc2)[C@@H](C)CC[C@@H]1C`, for which the TGI in the experiment on ACHN renal, with CAKI-1 renal, in the experiment with CCRF-CEM leukemia, in the experiment with HCC-2998 colon, in the experiment on HT29 colon and in the experiment on IGROV1 ovarian was more than 100 µM throughout. The TGI with MDA-MB-435, in the experiment with RXF 393 renal, in the experiment with SF-539 CNS and in the experiment with UACC-257 melanoma was more than 100 µM each time.

`NC(=Nc1cccc(Cl)c1)c1ccccc1N`: the TGI with ACHN renal, in the experiment with CAKI-1 renal, in the experiment with HCC-2998 colon, in the experiment on HT29 colon, in the experiment with IGROV1 ovarian and with MDA-MB-435 was more than 100 µM throughout. Also, the TGI with RXF 393 renal and in the experiment on UACC-257 melanoma was more than 100 µM each time.

On to `Cc1cccc(C)c1Nc1nc(C)c(C(=O)CC(=O)C(=O)Nc2c(C(C)C)cccc2C(C)C)s1`, for which the TGI in the experiment on ACHN renal, in the experiment with CAKI-1 renal, in the experiment with HCC-2998 colon, in the experiment on HT29 colon, in the experiment with IGROV1 ovarian and in the experiment with MDA-MB-435 was more than 100 µM each time. In addition, the TGI in the experiment with RXF 393 renal, in the experiment with SF-539 CNS and in the experiment with UACC-257 melanoma was more than 100 µM each time.

Consider `CCOC(=O)c1cc(C2CCN(c3ccccc3)C2=O)c(C(=O)/C=C(/C)N)[nH]1` (stereo not drawn), for which the TGI with ACHN renal is more than 100 µM; in the experiment on CAKI-1 renal, 81.6 µM; in the experiment on CCRF-CEM leukemia, more than 100 µM; in the experiment on HCC-2998 colon, more than 100 µM; in the experiment with HT29 colon, 25.6 µM; in the experiment with IGROV1 ovarian, more than 100 µM. Moreover, the figures for the TGI in the experiment with MDA-MB-435, in the experiment on RXF 393 renal and in the experiment with UACC-257 melanoma were more than 100 µM, 78.6 µM and more than 100 µM, respectively.

With `S=C(N1CCN(c2cccc(Cl)c2)CC1)N1CCN(c2cccc(Cl)c2)CC1`, the TGI with ACHN renal is more than 100 µM; in the experiment with CAKI-1 renal it was 83.7 µM; with CCRF-CEM leukemia it was 27.8 µM; with HCC-2998 colon, 36.1 µM; in the experiment on HT29 colon it was more than 100 µM; with IGROV1 ovarian, more than 100 µM. In addition, the TGI with MDA-MB-435, in the experiment on RXF 393 renal and in the experiment on UACC-257 melanoma was more than 100 µM in each case.

Regarding `Cc1c(N2C(=O)/C(=C/c3ccc(N(CCC#N)CCC#N)cc3)N=C2c2ccccc2)c(=O)n(-c2ccccc2)n1C`, the TGI in the experiment with CAKI-1 renal, in the experiment on CCRF-CEM leukemia, in the experiment with HCC-2998 colon, with HT29 colon, with IGROV1 ovarian and in the experiment with MDA-MB-435 was more than 100 µM in each case. Also, the TGI with RXF 393 renal, in the experiment with SF-539 CNS and with UACC-257 melanoma was more than 100 µM each time.

As to `COP(=O)(OC)/C(=C/c1cn(C(c2ccccc2)(c2ccccc2)c2ccccc2)cn1)NC=O`, the TGI with ACHN renal is 24.6 µM; with CAKI-1 renal it was 62.3 µM; in the experiment on CCRF-CEM leukemia, more than 100 µM; in the experiment with HCC-2998 colon, 33.3 µM; with HT29 colon it was 33.8 µM; with IGROV1 ovarian, 44.1 µM. Further, the TGI turned out to be 40.1 µM with MDA-MB-435, 35.1 µM with RXF 393 renal and 28.3 µM in the experiment with SF-539 CNS.

Turning to `CCOC(=O)C(O)(C(=O)OCC)c1cc(C(C)(C)C)c(O)c(C(C)(C)C)c1`, the TGI in the experiment with ACHN renal, with CAKI-1 renal, with CCRF-CEM leukemia, with HT29 colon, with IGROV1 ovarian and with MDA-MB-435 was more than 100 µM in each case. Moreover, the values for the TGI with RXF 393 renal, in the experiment with SF-539 CNS and with UACC-257 melanoma were 77.1 µM, 87.8 µM and more than 100 µM, respectively.

Regarding `CC1(C)OC[C@@H](O)[C@H](Br)CO1`, the TGI in the experiment with ACHN renal, in the experiment with CAKI-1 renal, with CCRF-CEM leukemia, with HCC-2998 colon, with HT29 colon and with MDA-MB-435 was more than 100 µM each time. Moreover, the TGI in the experiment with RXF 393 renal, in the experiment on SF-539 CNS and in the experiment on UACC-257 melanoma was more than 100 µM each time.

As for `Nc1ccc(-c2nc3ccccc3s2)cc1C#Cc1ccccc1`, the TGI stood at 38.5 µM with ACHN renal; 37.2 µM with CAKI-1 renal; 93.2 µM in the experiment with CCRF-CEM leukemia; 35.4 µM with HT29 colon; 28.4 µM with IGROV1 ovarian; 36 µM with MDA-MB-435. The TGI in the experiment on RXF 393 renal amounted to 34.6 µM; in the experiment on SF-539 CNS it was 35.4 µM; with UACC-257 melanoma, 31.3 µM.

As for `CCOC(=O)C(C)c1nc2ccc(C(F)(F)F)cc2[nH]c1=O` (stereo not drawn), the TGI in the experiment with ACHN renal, with CCRF-CEM leukemia, in the experiment with HCC-2998 colon, in the experiment on HT29 colon, with MDA-MB-435 and in the experiment on RXF 393 renal was more than 100 µM throughout. The TGI in the experiment with SF-539 CNS and with UACC-257 melanoma was more than 100 µM throughout.

Consider `CCN(CC)c1ccc2cc(C(=O)Nc3ccc(C)cc3)c(=N)oc2c1`, for which the TGI with ACHN renal, in the experiment on CAKI-1 renal, with CCRF-CEM leukemia, in the experiment with HCC-2998 colon, in the experiment on HT29 colon and in the experiment with IGROV1 ovarian was more than 100 µM each time. For the same compound, the TGI in the experiment with MDA-MB-435, in the experiment on RXF 393 renal and with UACC-257 melanoma was more than 100 µM throughout.

As to `NC1Cc2ccccc2OC1=O` (stereo not drawn), the TGI in the experiment on ACHN renal, in the experiment on CAKI-1 renal, with HCC-2998 colon, in the experiment with HT29 colon, with IGROV1 ovarian and in the experiment on MDA-MB-435 was more than 100 µM throughout. In addition, the TGI in the experiment with RXF 393 renal, with SF-539 CNS and in the experiment on UACC-257 melanoma was more than 100 µM throughout.
